In ChEMBL document CHEMBL1201862, “PubChem BioAssay data set” (2004):
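Each compound was tested at five concentrations against cells in 96-well plates for 48 hours. GI50 is the concentration that inhibits growth by half.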 Active and inactive are the calls of the source. Cut-off read from the data, not from the text of the source: active = GI50 up to about 1.1 µM and inactive = higher.

What was measured:
Test in all cases: inhibition of tumour cell growth, NCI panel, 48 h
ACHN = test system: ACHN
BT-549 = test system: BT-549
CCRF-CEM = test system: CCRF-CEM
COLO 205 = test system: COLO 205
DU-145 = test system: DU-145
EKVX = test system: EKVX
HCT-116 = test system: HCT-116
HCT-15 = test system: HCT-15
Hs-578T = test system: Hs-578T
NCI/ADR-RES = test system: NCI/ADR-RES
OVCAR-4 = test system: OVCAR-4
SNB-19 = test system: SNB-19
SR = test system: SR
TK-10 = test system: TK-10
U-251 = test system: U-251
UO-31 = test system: UO-31
KM12 = test system: KM12
MOLT-4 = test system: MOLT-4

Measured: GI50

CC1(C)CC(=O)c2c([nH]c(=S)c(C#N)c2-c2ccc(Br)cc2)C1
45.8 µM: HCT-15
inactive: ACHN 66.1 µM | BT-549 > 100 µM | CCRF-CEM 5.85 µM | COLO 205 > 10 µM | DU-145 61 µM | EKVX > 100 µM | HCT-116 58.2 µM | Hs-578T 29 µM | NCI/ADR-RES > 100 µM | OVCAR-4 34.4 µM | SNB-19 45.5 µM | SR 22.8 µM | TK-10 81.8 µM | U-251 35.6 µM | UO-31 45.9 µM

CN(C)CCSc1cc(-c2ccccc2)c2ccccc2n1
3.82 µM: HCT-15
inactive: ACHN 13.5 µM | BT-549 12.3 µM | CCRF-CEM 10.5 µM | COLO 205 1.97 µM | DU-145 15.4 µM | EKVX 15.7 µM | HCT-116 7.43 µM | Hs-578T 10.3 µM | KM12 14.3 µM | MOLT-4 6.38 µM | NCI/ADR-RES 14.9 µM | SNB-19 13.6 µM | SR 13.6 µM | TK-10 7.93 µM | U-251 10.6 µM | UO-31 10.6 µM

CN(C)CCSS(=O)(=O)O
> 100 µM: HCT-15
inactive: ACHN > 100 µM | BT-549 > 100 µM | CCRF-CEM > 100 µM | COLO 205 > 100 µM | DU-145 > 100 µM | EKVX > 100 µM | HCT-116 > 100 µM | Hs-578T > 100 µM | KM12 > 100 µM | MOLT-4 > 100 µM | NCI/ADR-RES > 100 µM | OVCAR-4 > 100 µM | SNB-19 > 100 µM | SR > 100 µM | TK-10 > 100 µM | U-251 30.2 µM | UO-31 > 100 µM

O=C1CS(=O)(=O)C(c2cccc(Oc3ccccc3)c2)N1c1cccc(Cl)c1 (centres undefined)
22.1 µM: HCT-15
inactive: ACHN 24.3 µM | BT-549 29.9 µM | CCRF-CEM 26.1 µM | COLO 205 18.8 µM | DU-145 66.8 µM | EKVX 17.6 µM | HCT-116 13.8 µM | Hs-578T 27.5 µM | KM12 26.5 µM | MOLT-4 19.1 µM | NCI/ADR-RES 29.8 µM | OVCAR-4 26.5 µM | SNB-19 43.4 µM | SR 12.1 µM | TK-10 26.6 µM | U-251 21.2 µM | UO-31 37.1 µM

CC(=O)c1ccc(Oc2c3ccccc3nc3ccccc23)cc1
inactive: ACHN 4.15 µM | BT-549 12.5 µM | CCRF-CEM 2.82 µM | COLO 205 2.79 µM | DU-145 4.5 µM | EKVX 17.5 µM | HCT-116 2.7 µM | Hs-578T 8.61 µM | KM12 7 µM | NCI/ADR-RES 11.3 µM | OVCAR-4 5.93 µM | SNB-19 18.7 µM | TK-10 6.76 µM | U-251 11.6 µM | UO-31 3.83 µM
4.01 µM: HCT-15
active: SR 1.01 µM

C[C@H](NC1=C(Cl)C(=O)c2c(O)ccc(O)c2C1=O)C(=O)Nc1ccc([N+](=O)[O-])cc1
active: CCRF-CEM 0.305 µM
inactive: ACHN 2.94 µM | BT-549 4.02 µM | COLO 205 1.59 µM | DU-145 1.82 µM | EKVX 4.93 µM | HCT-116 1.41 µM | Hs-578T 4.57 µM | KM12 1.82 µM | MOLT-4 10 µM | NCI/ADR-RES 1.81 µM | OVCAR-4 1.73 µM | SNB-19 3.06 µM | SR 2.47 µM | TK-10 1.95 µM | U-251 2.58 µM
1.93 µM: HCT-15

Cc1cccc(N2C(=O)C3c4[nH]c5ccccc5c4C4CCC(C(C)(C)C)CC4C3C2=O)c1C (centres undefined)
inactive: ACHN > 100 µM | BT-549 > 100 µM | CCRF-CEM 56.6 µM | COLO 205 > 100 µM | DU-145 > 100 µM | EKVX 29.7 µM | HCT-116 28.7 µM | Hs-578T 25.8 µM | MOLT-4 > 100 µM | NCI/ADR-RES > 100 µM | SNB-19 > 100 µM | SR > 100 µM | TK-10 > 100 µM | U-251 28.2 µM | UO-31 > 100 µM
> 100 µM: HCT-15

O=C(NC1(C(=O)O)CC1c1ccccc1)c1ccccc1 (centres undefined)
inactive: ACHN > 100 µM | BT-549 > 100 µM | COLO 205 > 100 µM | DU-145 > 100 µM | EKVX > 100 µM | HCT-116 > 100 µM | Hs-578T > 100 µM | KM12 > 100 µM | MOLT-4 > 100 µM | NCI/ADR-RES > 100 µM | OVCAR-4 > 100 µM | SNB-19 > 100 µM | SR > 100 µM | TK-10 > 100 µM | U-251 > 100 µM | UO-31 > 100 µM
> 100 µM: HCT-15

O=C(/C=N/O)Nc1cc(Cl)c(Cl)cc1Cl
31.4 µM: HCT-15
inactive: ACHN 29.9 µM | BT-549 27.2 µM | CCRF-CEM 26.7 µM | COLO 205 26.8 µM | DU-145 31.9 µM | EKVX 23.2 µM | HCT-116 37.1 µM | Hs-578T 29.2 µM | KM12 26.5 µM | MOLT-4 15.1 µM | NCI/ADR-RES 33.9 µM | OVCAR-4 26.1 µM | SNB-19 50.5 µM | TK-10 30.4 µM | U-251 29.2 µM | UO-31 41.9 µM

Cc1cccc(Nc2cc(Cl)nc(SCC(=O)O)n2)c1C [PIRINIXIC ACID]
inactive: ACHN > 100 µM | BT-549 > 100 µM | CCRF-CEM > 100 µM | COLO 205 > 100 µM | DU-145 > 100 µM | EKVX > 100 µM | HCT-116 > 100 µM | Hs-578T > 100 µM | KM12 > 100 µM | MOLT-4 63.1 µM | NCI/ADR-RES > 100 µM | OVCAR-4 > 100 µM | SNB-19 > 100 µM | SR > 100 µM | TK-10 > 100 µM | U-251 > 100 µM
> 100 µM: HCT-15

COc1cc(C=C2C(=O)NC(=S)NC2=O)cc(OC)c1OC
inactive: ACHN > 100 µM | BT-549 > 100 µM | CCRF-CEM > 100 µM | COLO 205 > 100 µM | DU-145 > 100 µM | EKVX > 100 µM | HCT-116 > 100 µM | Hs-578T > 100 µM | KM12 > 100 µM | MOLT-4 > 100 µM | NCI/ADR-RES > 100 µM | OVCAR-4 > 100 µM | SNB-19 > 100 µM | TK-10 > 100 µM | U-251 > 100 µM | UO-31 > 100 µM
> 100 µM: HCT-15

N#Cc1sc2c(c1OC(=O)c1cccs1)c(=O)n(-c1ccccc1)c(=S)n2-c1ccccc1
17.3 µM: HCT-15
inactive: BT-549 15.5 µM | CCRF-CEM > 10 µM | COLO 205 19.9 µM | DU-145 32.4 µM | EKVX 33.2 µM | HCT-116 15.2 µM | Hs-578T 15.2 µM | KM12 18.9 µM | MOLT-4 19.4 µM | NCI/ADR-RES 21.8 µM | OVCAR-4 20.7 µM | SNB-19 26.5 µM | SR 25.6 µM | TK-10 31 µM | U-251 20.2 µM | UO-31 16.1 µM
